Reference: ChEMBL document CHEMBL3885861, “Open TG-GATES”

Species: Rattus norvegicus
Experiment: Open TG-GATES - Regimen: Single
Type: toxicity, organism-based, Sprague-Dawley
Design: regimen Single, gender Male, age 6 weeks
Conditions: in vivo, po, 100 mg/kg, route gavage, dose level Low; for APTT / Bas / Eos / Fbg / Hb / Ht / Lym / MCH / MCHC / MCV / Mono / Neu / PT / Plat / RBC / Ret / WBC: tissue Blood; for KIDNEY_L / KIDNEY_R / KIDNEY_TOTAL: tissue Kidney; for LIVER: tissue Liver; for A/G / ALP / ALT / AST / BUN / CRE / Ca / Cl / DBIL / GLC / IP / K / LDH / Na / PL / RALB / TBIL / TC / TG / TP / gamma-GTP: tissue Plasma

## CCOC(=O)CCC(=O)O[C@H]1[C@H](O[C@@H]2[C@@H](C)[C@H](O[C@H]3C[C@@](C)(OC)[C@@H](O)[C@H](C)O3)[C@@H](C)C(=O)O[C@H](CC)[C@@](C)(O)[C@H](O)[C@@H](C)C(=O)[C@H](C)C[C@@]2(C)O)O[C@H](C)C[C@@H]1N(C)C [ERYTHROMYCIN ETHYLSUCCINATE]
3 h
  TERMINAL_BW: 214.5 g
  APTT: 22.9 s
  Bas: 0%
  Eos: 0.8%
  Fbg: 311.4 mg/dL
  Hb: 13.2 g/dL
  Ht: 39.7%
  Lym: 77.4%
  MCH: 21.4 pg
  MCHC: 33.2%
  MCV: 64.4 fL
  Mono: 2.6%
  Neu: 18.6%
  PT: 16.2 s
  Plat: 111.6 x10_4/uL
  RBC: 617.6 x10_4/ul
  Ret: 8.2%
  WBC: 78.3 x10_2/uL
  KIDNEY_L: 0.9 g
  KIDNEY_R: 1 g
  KIDNEY_TOTAL: 1.9 g
  LIVER: 9.9 g
  A/G: 1.2
  ALP: 1930.6 IU/L
  ALT: 47.6 IU/L
  AST: 78 IU/L
  BUN: 12.8 mg/dL
  CRE: 0.1 mg/dL
  Ca: 10.5 mg/dL
  Cl: 102.8 meq/L
  DBIL: 0.006 mg/dL
  GLC: 189.2 mg/dL
  IP: 9.1 mg/dL
  K: 3.8 meq/L
  LDH: 147.2 IU/L
  Na: 139.2 meq/L
  PL: 142.6 mg/dL
  RALB: 2.9 g/dL
  TBIL: 0.02 mg/dL
  TC: 73 mg/dL
  TG: 70.2 mg/dL
  TP: 5.5 g/dL
  gamma-GTP: 1 IU/L
6 h
  TERMINAL_BW: 213.8 g
  APTT: 22.8 s
  Bas: 0%
  Eos: 0.8%
  Fbg: 308 mg/dL
  Hb: 13.2 g/dL
  Ht: 39.8%
  Lym: 76.6%
  MCH: 20.9 pg
  MCHC: 33.1%
  MCV: 63.4 fL
  Mono: 2.6%
  Neu: 18.8%
  PT: 16 s
  Plat: 118.8 x10_4/uL
  RBC: 628 x10_4/ul
  Ret: 7.8%
  WBC: 108.5 x10_2/uL
  KIDNEY_L: 1 g
  KIDNEY_R: 1 g
  KIDNEY_TOTAL: 2 g
  LIVER: 9.2 g
  A/G: 1.1
  ALP: 1420.4 IU/L
  ALT: 40.2 IU/L
  AST: 72 IU/L
  BUN: 12 mg/dL
  CRE: 0.2 mg/dL
  Ca: 10.5 mg/dL
  Cl: 104 meq/L
  DBIL: 0 mg/dL
  GLC: 187.6 mg/dL
  IP: 9.5 mg/dL
  K: 4.2 meq/L
  LDH: 182 IU/L
  Na: 138 meq/L
  PL: 132.2 mg/dL
  RALB: 2.8 g/dL
  TBIL: 0.02 mg/dL
  TC: 69.8 mg/dL
  TG: 63.4 mg/dL
  TP: 5.3 g/dL
  gamma-GTP: 1.2 IU/L
9 h
  TERMINAL_BW: 216.4 g
  APTT: 23.3 s
  Bas: 0%
  Eos: 1%
  Fbg: 315 mg/dL
  Hb: 13.3 g/dL
  Ht: 40.4%
  Lym: 80.4%
  MCH: 21.5 pg
  MCHC: 33%
  MCV: 65 fL
  Mono: 2%
  Neu: 15.8%
  PT: 15.6 s
  Plat: 121.2 x10_4/uL
  RBC: 622 x10_4/ul
  Ret: 8%
  WBC: 73.2 x10_2/uL
  KIDNEY_L: 1 g
  KIDNEY_R: 1.1 g
  KIDNEY_TOTAL: 2.1 g
  LIVER: 9.2 g
  A/G: 1.2
  ALP: 1398.8 IU/L
  ALT: 32.4 IU/L
  AST: 64 IU/L
  BUN: 12.4 mg/dL
  CRE: 0.1 mg/dL
  Ca: 10.6 mg/dL
  Cl: 105.4 meq/L
  DBIL: 0 mg/dL
  GLC: 188.8 mg/dL
  IP: 9.5 mg/dL
  K: 4.2 meq/L
  LDH: 145.6 IU/L
  Na: 138.6 meq/L
  PL: 136 mg/dL
  RALB: 3 g/dL
  TBIL: 0.012 mg/dL
  TC: 78.2 mg/dL
  TG: 87.4 mg/dL
  TP: 5.5 g/dL
  gamma-GTP: 1.4 IU/L
24 h
  TERMINAL_BW: 222.7 g
  APTT: 21.4 s
  Bas: 0%
  Eos: 0.8%
  Fbg: 326.2 mg/dL
  Hb: 13.8 g/dL
  Ht: 41.6%
  Lym: 86.4%
  MCH: 20.6 pg
  MCHC: 33.2%
  MCV: 62.2 fL
  Mono: 3%
  Neu: 8.2%
  PT: 16 s
  Plat: 122.9 x10_4/uL
  RBC: 670 x10_4/ul
  Ret: 6.7%
  WBC: 102.3 x10_2/uL
  KIDNEY_L: 0.9 g
  KIDNEY_R: 1 g
  KIDNEY_TOTAL: 1.9 g
  LIVER: 9.5 g
  A/G: 1.3
  ALP: 1407.8 IU/L
  ALT: 43.4 IU/L
  AST: 70.4 IU/L
  BUN: 14 mg/dL
  CRE: 0.1 mg/dL
  Ca: 10.6 mg/dL
  Cl: 106.6 meq/L
  DBIL: 0.002 mg/dL
  GLC: 200.6 mg/dL
  IP: 7.7 mg/dL
  K: 4.1 meq/L
  LDH: 183.2 IU/L
  Na: 142.4 meq/L
  PL: 140.4 mg/dL
  RALB: 3.1 g/dL
  TBIL: 0.03 mg/dL
  TC: 83 mg/dL
  TG: 71.6 mg/dL
  TP: 5.5 g/dL
  gamma-GTP: 1.4 IU/L
